Test [1] addresses T1, Progesterone receptor (Homo sapiens, UniProt P06401).
T1 sequence (P06401 whole entry): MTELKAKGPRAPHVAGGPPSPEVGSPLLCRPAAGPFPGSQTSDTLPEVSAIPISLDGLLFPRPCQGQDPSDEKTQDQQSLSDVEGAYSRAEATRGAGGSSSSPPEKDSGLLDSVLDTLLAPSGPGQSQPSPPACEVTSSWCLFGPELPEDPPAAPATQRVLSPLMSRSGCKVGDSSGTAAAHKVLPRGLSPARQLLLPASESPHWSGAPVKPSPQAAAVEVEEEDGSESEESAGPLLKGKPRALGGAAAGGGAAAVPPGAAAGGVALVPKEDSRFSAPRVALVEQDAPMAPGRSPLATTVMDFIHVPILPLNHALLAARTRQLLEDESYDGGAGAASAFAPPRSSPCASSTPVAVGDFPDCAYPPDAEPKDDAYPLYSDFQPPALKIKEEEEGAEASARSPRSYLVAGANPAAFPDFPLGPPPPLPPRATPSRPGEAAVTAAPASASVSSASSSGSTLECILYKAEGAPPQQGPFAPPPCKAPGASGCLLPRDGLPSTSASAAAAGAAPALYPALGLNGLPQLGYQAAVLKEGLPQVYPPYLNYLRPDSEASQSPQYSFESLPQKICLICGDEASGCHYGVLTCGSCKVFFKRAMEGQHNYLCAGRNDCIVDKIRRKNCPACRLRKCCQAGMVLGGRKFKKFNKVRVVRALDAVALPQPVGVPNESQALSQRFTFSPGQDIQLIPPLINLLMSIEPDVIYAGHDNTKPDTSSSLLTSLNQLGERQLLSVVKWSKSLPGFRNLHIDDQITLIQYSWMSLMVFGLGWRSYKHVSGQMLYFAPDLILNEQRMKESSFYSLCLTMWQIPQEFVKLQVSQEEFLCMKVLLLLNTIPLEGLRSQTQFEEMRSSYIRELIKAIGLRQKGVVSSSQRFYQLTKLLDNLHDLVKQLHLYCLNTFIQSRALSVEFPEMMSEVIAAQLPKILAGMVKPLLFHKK
In words: Inhibitory concentration against progesterone stimulated alkaline phosphatase activity in T47D human breast carcinoma cell line. In kind it is cell-based.

The target of test [2] is T1, Progesterone receptor. Nature of the test: Binding affinity towards progesterone receptor was measured.
For test [3], the target named is T1, Progesterone receptor. In words: Inhibitory concentration against progesterone induced PRE-luciferase activity in CV-cells. Also noted: species or system Oryctolagus cuniculus.

pIC50, pKi: −log10 of the molar value. Some results are limits rather than exact numbers.

Regarding `O=c1[nH]c2ccc(-c3cccc([N+](=O)[O-])c3)cc2n1Cc1ccccc1`, the pIC50 (commonly −log10 of the IC50, conventionally taken in molar units) in test [1] is 7.21; in test [3] it was 6.59. Also, in test [2], the pKi (in general, the Ki on a negative log10 scale, so that one unit is a factor of ten) was 6.15.
As for `CC(C)n1c(=O)[nH]c2ccc(-c3cccc(Cl)c3)cc21`, the pIC50 is 6.95 in test [1] and 6.39 in test [3]. In test [2], this molecule gave a pKi of 6.28.
On the same counts, the results for `O=c1[nH]c2ccc(-c3cccc(Cl)c3)cc2s1` are 6.34, 6.58 and 6.90.
`O=[N+]([O-])c1cccc(-c2ccc3[nH]c(=S)n(Cc4ccccc4)c3c2)c1` gave a pIC50 in test [1] of 8.00. For the same molecule, in test [2], the pKi is 7.52.
In turn, `Cn1c(=O)[nH]c2ccc(-c3cccc([N+](=O)[O-])c3)cc21` had a pIC50 in test [1] of 6.00. For the same molecule, the negative-log Ki (pKi) in test [2] is below 5.00.
In turn, `O=c1[nH]c2ccc(-c3cccc(Cl)c3)cc2n1Cc1ccccc1` showed a negative-log IC50 (pIC50) in test [1] of 6.95. In test [2], this molecule gave a pKi of 6.28.
`S=c1[nH]c2cc(-c3cccc(Cl)c3)ccc2n1Cc1ccccc1`: in test [1], the negative-log IC50 (pIC50) was below 5.00.
Turning to `CC(C)n1c(=O)[nH]c2ccc(-c3cccc([N+](=O)[O-])c3)cc21`, the pIC50 is 7.14 in test [1] and 6.87 in test [3]. The molecule further gave a pKi in test [2] of 6.28.
For `O=[N+]([O-])c1cccc(-c2ccc3c(c2)nc(O)n3Cc2ccccc2)c1` the same measures were below 5.00, below 5.00 and below 5.00.
In test [1], `Cn1c(=O)[nH]c2ccc(-c3cccc(Cl)c3)cc21` had a pIC50 of 6.00.
`S=c1[nH]c2ccc(-c3cccc(Cl)c3)cc2n1Cc1ccccc1` showed a pIC50 in test [1] of 7.77. In test [2], this molecule gave a pKi of 6.82.
Consider `CCn1c(=O)[nH]c2ccc(-c3cccc(Cl)c3)cc21`, for which the pIC50 was 7.53 in test [1] and 6.97 in test [3]. Also, the pKi in test [2] was around 6.00.
`O=c1[nH]c2ccc(-c3cccc([N+](=O)[O-])c3)cc2s1`: the pIC50 is 7.08 in test [1] and 6.49 in test [3]. Also, the pKi in test [2] was 6.48.
As for `Oc1nc2cc(-c3cccc(Cl)c3)ccc2n1Cc1ccccc1`, the pIC50 in test [1] was below 5.00; in test [3], 5.51. The molecule further showed a pKi in test [2] of 5.50.

(Values after ChEMBL document CHEMBL1133814, “Synthesis and progesterone receptor antagonist activities of 6-aryl benzimidazolones and benzothiazolones” (Bioorg Med Chem Lett, 2001).)
